# Where no end group is shown, it is not given here.
# How the values were obtained:
# HCAEC = assay: S100A1 overexpression and NO production in HCAEC; format: cell-based, human; conditions: HCAEC pre-incubated with 10^−4 M 20 minutes prior to ACh
# Description: S100A1 overexpression and NO production in HCAEC—S100A1 overexpression in HCAEC was achieved by electrical transfection of the plasmid pAdTrack-S100A1 (10 μg), which encodes for GFP and S100A1 both driven by individual cytomegalovirus (CMV) promoters. PBS and the plasmid pAdTrack (10 μg) were used as controls. 500,000 HCAEC were used for each transfection using Nucleofactor® (AMAXA biosystems) according to the manufacturers instructions and plated on 6 well dishes. 18 hours after transfection cells were stimulated using 10^−5M ACh or PBS for 1 hour. […] NO in the supernatant was measured indirectly using the Nitrate/Nitrite fluorometric assay kit (Cayman, Chemical) according to company recommendations. Transfection was controlled by GFP expression as described previously and cells were harvested for mRNA isolation. Experiments were run in triplicate and 3 individual experiments were performed.
# mouse thoracic aorta = assay: In vitro physiology: relaxation/contraction response of thoracic aorta rings
# From the text: In Vitro physiology —The relaxation/contraction response of thoracic aortas of WT or SKO mice was examined using a commercially available mounting apparatus attached to a force transducer (ADInstruments). […] Data were normalized to the PE-induced EC50 contraction which were similar between all aorta tested.
# [1] = test system: endothelial surface of thoracic aorta; assay: NO release from mouse aorta; conditions: ACh 10^−5 M
# Description: NO release from mouse aorta—NO release from the endothelial surface of aorta was measured in vitro using an Apollo 4000 “Free Radical Analyzer” (WPI, Sarasota, Fla.) as previously described with some modifications.^52 Briefly, thoracic aorta of WT (n=4) and SKO (n=4) mice were carefully isolated and pinned down in KH solution after connective tissue was thoroughly removed. NO was measured under baseline conditions as well as after ACh stimulation (10^−5 M). Two measurements were recorded per animal and condition and NO values were normalized to the weight of the vascular tissue.
# [2] = test system: rat MI model (chronic HF); assay: Catheter-based in vivo hemodynamic measurements in post-MI HF rats; conditions: mean ± SEM
# Description: (§1) Rat MI model and cardiac gene delivery—All animal procedures and experiments were performed in accordance with the guidelines of the IACUC of Thomas Jefferson University. MI was induced as described previously using a model of cryoinfarction that produces a highly reproducible loss of myocardium^13. Briefly, anesthetized adult male (250-300 g) rats were intubated and mechanically ventilated and anaesthesia was maintained using a 2% isoflurane (v/v) oxygen mixture. The heart was exposed through a median sternotomy and the pericardium was opened. A 6-0 suture was placed at the apex of the LV. An 8 mm diameter cylindrical stamp was cooled in liquid nitrogen and then pressed on the LV free wall. Cryothermia was applied by use of three freeze cycles of 1 min each that was interrupted by one minute thawing intervals^13,15.
# Myocardial gene transfer to 10 week post-MI rats was achieved as previously described^13,15 with some modifications. Briefly, under general anesthesia (2% isoflurane, v/v) a midline cervical incision was made and the animal was cooled to 29° C. using ice packs. A P-50 catheter (Becton Dickinson, Sparks, Md.) was advanced into the aortic root via the right carotid artery and the ascending aorta was looped using 2-0 silk. 1.2 mg adenosine was injected into the right ventricle using a 30½ G needle. Next, the ascending aorta was clamped and 2.5×10^11 particles of the AAV construct and 8 μg of substance P (Sigma) were rapidly injected into the aortic root allowing for coronary perfusion. After 2 min the aortic clamp was released, a bolus of dobutamine (30 μg; intra-arterial) was administered and the animal was re-warmed using a heating pad. The incision was closed and animals were transferred back to their cages receiving appropriate analgesia. […]
# Catheter-based in vivo hemodynamic measurements—Cardiac function was measured 8 weeks following gene therapy (18 weeks after MI) in anesthetized rats (2% isoflurane; v/v) using 2 F pressure catheter (SPR-320; Millar instruments, Houston, Tex.). The pressure transducer was placed into the LV cavity through the right carotid artery and the right external jugular vein was cannulated with a P-10 catheter (Becton Dickinson, Sparks, Md.) that was used for isoproterenol administration (333 ng/kg BW) as previously described^13,15.
# [3] = test system: adult rat ventricular cardiomyocytes; assay: Ca2+-transient analyses and contractile parameters of isolated adult rat cardiomyocytes; format: cell-based; conditions: 8 weeks after treatment; 1 Hz, 2.5 mM [Ca2+]e; for AAV6/S100A1 infected (green) cells only
# [4] = test system: adult rat ventricular cardiomyocytes; assay: Diastolic cell length of isolated cardiomyocytes; format: cell-based; conditions: 2 hrs after cardiomyocyte isolation, 3 animals per group, 18 weeks post-MI; mean ± SEM
# Description: Isolation of adult rat ventricular cardiomyocytes—Ca^2+-tolerant adult cardiomyocytes were isolated from LVs 8 weeks after gene delivery (18 weeks post-MI) by a standard enzymatic digestion procedure and cultivated as described^13,15. […] Length of isolated cardiomyocytes was determined on enlarged digital photos using Olympus Fluoview 4.3 software.
# [5] = test system: rat MI model (chronic HF); assay: Echocardiography of global cardiac function in post-MI HF rats; format: in vivo
# Description: as §1
# Myocardial gene transfer to 10 week post-MI rats was achieved as previously described^13,15 with some modifications. […]
# Echocardiography—To measure global cardiac function, echocardiography was performed 10 and 18 weeks post-MI by use of the VisualSONICS VeVo 770 imaging system with a 710 scanhead in anesthetized animals (2% isoflurane, v/v). The internal diameter of the LV was measured in the short-axis view from M-mode recordings in end diastole and end systole. […]
# [6] = test system: rat MI model (chronic HF); assay: Heart weight to body weight ratio in post-MI HF rats; format: in vivo; conditions: 18 weeks post-MI; mean ± SEM
# Description: Myocardial gene transfer to 10 week post-MI rats was achieved as previously described^13,15 with some modifications. Briefly, under general anesthesia (2% isoflurane, v/v) a midline cervical incision was made and the animal was cooled to 29° C. using ice packs. A P-50 catheter (Becton Dickinson, Sparks, Md.) was advanced into the aortic root via the right carotid artery and the ascending aorta was looped using 2-0 silk. 1.2 mg adenosine was injected into the right ventricle using a 30½ G needle. Next, the ascending aorta was clamped and 2.5×10^11 particles of the AAV construct and 8 μg of substance P (Sigma) were rapidly injected into the aortic root allowing for coronary perfusion. […]
# [7] = test system: LV mRNA (S100A1, SERCA2a, PLB, ANF, TGFβ1, Collagen I); assay: Real-time RT-PCR of cardiac expression of key genes in LV; format: in vivo, rat; conditions: 18 weeks post-MI
# Description: RNA isolation and real-time RT-PCR—Total RNA was isolated from LV as well as from isolated cardiomyocytes using either Ultraspec® (Biotec) or Trizol® (Life Technologies). cDNA was synthesized by reverse transcription of the RNA with Superscript II® (Life Technologies) as recommended. Real-time RT-PCR was performed in duplicates with a 1:100 dilution of the cDNA on a MyIQ real time PCR detection system (BioRad) with the SYBR® Green PCR master mix (Applied Biosystems) as described previously^13,15. The oligonucleotide primers to examine expression of genes were as follows: ANF, forward primer 5′-[…]-3′ (SEQ. ID. No. 13), reverse primer 5′-[…]-3′ (SEQ. ID. No. 14); SERCA2a, forward primer 5′-[…]-3′ (SEQ. ID. No. 15), reverse primer 5′-[…]-3′ (SEQ. ID. No. 16); PLB, forward primer 5′-[…]-3′ (SEQ. ID. No. 17), reverse primer 5′-[…]-3′(SEQ. ID. No. 18); S100A1, forward primer 5′-[…]-3′ (SEQ. ID. No. 19), reverse primer 5′-[…]-3′ (SEQ. ID. No. 20); TGF-131, forward primer 5′-[…]-3′ (SEQ. ID. No. 21), reverse primer 5′-[…]-3′(SEQ. ID. No. 22); Collagen type I, forward primer 5′-[…]-3′ (SEQ. ID. No. 23), reverse primer 5′-AGGTGATGTTCTGGG-3′(SEQ. ID. No. 24); GRK2, forward primer 5′-[…]-3′ (SEQ. ID. No. 25), reverse primer 5′-[…]-3′ (SEQ. ID. No. 26). For normalization, 18S rRNA was used, forward primer 5′-[…]-3′ (SEQ. ID. No. 27), reverse primer 5′-GGACATCTAAGGGCATCAC-3′ (SEQ. ID. No. 28). PCR conditions were 95° C., 3 min, and 40 cycles of 95° C., 10 sec; 60.5° C., 45 sec. Specificity of PCR products were confirmed by gel electrophoresis.
# [8] = test system: S100A1 mRNA expression in RCEC; assay: Regulation of S100A1 expression in endothelial cells; format: cell-based, rat; conditions: 10^−7 M, 60 hours, versus PBS
# Description: Regulation of S100A1 expression in HCAEC—After growing HCAEC or RCEC to 90% confluency full medium was replaced by basal EBM-2 medium with 0.5% serum and cells were stimulated with endothelin-1 (ET-1), angiotensin II (AngII) (both 10^−7 M) or PBS for 60 h. Cells were harvested for either mRNA or protein isolation and S100A1 expression was standardized against 18S rRNA or GAPDH.
# RNA Isolation and Real-time RT-PCR—Total RNA was isolated from either HCAEC or […] using Trizol® (Life Technologies). cDNA was synthesized by reverse transcription of the RNA with Superscript II® (Life Technologies) as recommended. Real-time PCR was performed in duplicates with a 1:100 dilution of the cDNA on a MyIQ real time PCR detection system (BioRad) with the SYBR® Green PCR master mix (Applied Biosystems). The oligonucleotide primers to examine expression of genes were as follows: S100A1, forward primer 5′-[…]-3′ (SEQ. ID. No. 19), reverse primer 5′-[…]-3′ (SEQ. ID. No. 20). For normalization, 18S rRNA was used, forward primer 5′-[…]-3′ (SEQ. ID. No. 27), reverse primer 5′-GGACATCTAAGGGCATCAC-3′ (SEQ. ID. No. 28). PCR conditions were 95° C., 3 min, and 40 cycles of 95° C., 10 sec; 63.5° C., 45 sec. Specificity of PCR products were confirmed by gel electrophoresis.
# [9] = Isoproterenol (333 ng/kg BW), 8 weeks after gene therapy in HF
# [10] = basal, 8 weeks after gene therapy in HF
compound,measurement,setting,value
"NCCOB(c1ccccc1)c1ccccc1 [2-APB, 2-aminoethoxydiphenylborate]",ACh-stimulated NO generation after IP3R blockage,HCAEC,abolished NO generation
"CC(=O)OCC[N+](C)(C)C [ACh, acetylcholine]",maximal response to ACh,mouse thoracic aorta; SKO aortas (n=6),55±6.49 % of PE-precontraction
same,maximal response to ACh,mouse thoracic aorta; WT control aortas (n=6),14±2.41 % of PE-precontraction
same,ACh stimulated aortic endothelial NO release,"[1]; SKO mice (n=4), second value",134.5±25.3 nM NO/mg tissue
same,ACh stimulated aortic endothelial NO release,[1]; WT mice (n=4),368.2±68.1 nM NO/mg tissue
"CNC[C@H](O)c1cccc(O)c1 [PE, phenylephrine]",EC50,"mouse thoracic aorta; Mus musculus, read-out: EC50 of the PE response (contraction)",0.3 µM
COCCc1ccc(OCC(O)CNC(C)C)cc1 (centres unmarked) [metoprolol],HR,[2]; [9],308 ± 6^& min^−1
same,LV +dP/dt,[2]; [9],9403 ± 491 mmHg/s
same,LV −dP/dt,[2]; [9],5571 ± 333 mmHg/s
same,LVEDP,[2]; [9],2.8 ± 0.4 mmHg
same,LVESP,[2]; [9],105 ± 3.7 mmHg
same,HR,"[2]; basal, 8 weeks after gene therapy in HF (18 weeks post-MI)",264 ± 8^& min^−1
same,LV +dP/dt,[2]; [10],4948 ± 225 mmHg/s
same,LV −dP/dt,[2]; [10],4418 ± 223 mmHg/s
same,LVEDP,[2]; [10],4.6 ± 0.5 mmHg
same,LVESP,[2]; [10],109 ± 3.1 mmHg
same,contractile properties and [Ca2+]i transients of isolated failing myocytes,[3],did not affect contractile properties
same,Cell length (diastolic),[4],118.9 ± 2.3 μm
same,LV chamber dilatation (LV diastolic dimension),[5]; 18 week post-MI compared to pre-treatment (10 week post-MI) values,significantly attenuated further LV chamber dilatation
same,change in cardiac function (EF) over the 2 month treatment period,"[5]; HF rats, metoprolol only (with GFP)",no improvement
same,HW/BW ratio,[6],2.77 ± 0.05 g/kg
same,Collagen I mRNA levels,[7],significantly reduced
same,TGFβ1 mRNA levels,[7],significantly reduced
same,ventricular ANF mRNA expression,[7],significantly reduced
same,PLB mRNA levels,[7]; standardized to 18S rRNA,attenuated the down-regulation
same,SERCA2a mRNA levels,[7]; standardized to 18S rRNA,attenuated the down-regulation
same,cardiac S100A1 mRNA,[7]; standardized to 18S rRNA,attenuated the down-regulation
"angiotensin II (DRVYIHPF; Angiotensin-2; UniProt P01019 25-32, looked up) [Ang II]",S100A1 mRNA levels,[8],significantly reduced
"endothelin-1 (CSCSSLMDKECVYFCHLDIIW; ends and bridges not checked; cysteine pairing not given here; UniProt P05305 53-73, looked up) [ET-1]",S100A1 mRNA levels,[8],significantly reduced

# From patent publication US8383601B2, “Tissue specific gene therapy treatment” (Thomas Jefferson University, priority 2006, dated 2013)
